In ChEMBL document CHEMBL2074201, “Cepharanthin, a multidrug resistant modifier, is a substrate for P-glycoprotein” (J Pharmacol Exp Ther, 1995):

Experiments:
[1] = molecular target: T1, ATP-dependent translocase ABCB1 (Homo sapiens, UniProt P08183); assay: TP_TRANSPORTER: transepithelial transport (basal to apical) in MDR1-expressing LLC-PK1 cells; assay type: functional, cell-based; settings: pig
[2] = molecular target: T1, ATP-dependent translocase ABCB1; assay: TP_TRANSPORTER: inhibition of Daunorubicin transepithelial transport (basal to apical) (Daunorubicin: 0.1 uM) in MDR1-expressing LLC-PK1 cells; assay type: functional, cell-based

T1 sequence (P08183 whole entry): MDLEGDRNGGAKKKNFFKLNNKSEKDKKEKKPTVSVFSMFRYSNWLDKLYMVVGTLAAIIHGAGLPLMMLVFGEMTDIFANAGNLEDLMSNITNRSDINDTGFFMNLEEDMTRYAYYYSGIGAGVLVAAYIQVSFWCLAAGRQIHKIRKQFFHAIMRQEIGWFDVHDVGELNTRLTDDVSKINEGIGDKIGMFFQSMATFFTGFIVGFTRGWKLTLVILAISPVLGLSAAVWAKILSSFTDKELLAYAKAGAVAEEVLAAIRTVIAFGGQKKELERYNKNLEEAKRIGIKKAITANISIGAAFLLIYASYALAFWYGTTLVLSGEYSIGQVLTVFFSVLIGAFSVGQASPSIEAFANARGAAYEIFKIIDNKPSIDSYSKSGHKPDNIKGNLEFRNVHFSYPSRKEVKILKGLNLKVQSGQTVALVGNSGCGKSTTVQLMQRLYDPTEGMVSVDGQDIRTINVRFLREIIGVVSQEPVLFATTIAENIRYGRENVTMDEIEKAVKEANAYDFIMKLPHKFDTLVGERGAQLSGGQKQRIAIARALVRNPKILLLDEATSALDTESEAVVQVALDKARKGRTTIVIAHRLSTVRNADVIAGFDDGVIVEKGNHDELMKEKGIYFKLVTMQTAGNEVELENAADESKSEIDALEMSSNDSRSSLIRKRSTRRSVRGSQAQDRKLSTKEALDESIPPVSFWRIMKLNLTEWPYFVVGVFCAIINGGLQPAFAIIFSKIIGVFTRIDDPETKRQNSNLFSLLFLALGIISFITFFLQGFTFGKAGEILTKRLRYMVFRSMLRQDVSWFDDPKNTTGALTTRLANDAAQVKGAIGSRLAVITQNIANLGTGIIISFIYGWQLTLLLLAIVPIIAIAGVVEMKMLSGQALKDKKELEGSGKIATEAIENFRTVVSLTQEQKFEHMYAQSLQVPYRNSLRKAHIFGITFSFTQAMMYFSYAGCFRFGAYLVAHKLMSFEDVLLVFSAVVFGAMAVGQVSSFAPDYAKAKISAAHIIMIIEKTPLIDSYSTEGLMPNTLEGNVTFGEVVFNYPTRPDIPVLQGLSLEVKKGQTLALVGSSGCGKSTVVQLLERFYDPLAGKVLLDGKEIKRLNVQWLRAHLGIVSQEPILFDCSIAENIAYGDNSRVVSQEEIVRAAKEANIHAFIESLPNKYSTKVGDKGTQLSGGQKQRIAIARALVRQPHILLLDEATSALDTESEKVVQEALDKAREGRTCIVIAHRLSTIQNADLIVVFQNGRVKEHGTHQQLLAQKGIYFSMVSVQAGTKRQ

Activity [1]: substrate [+]
IC50 [2]: 2060 nM
Structure (SMILES): COc1ccc2cc1Oc1cccc(c1)C[C@H]1c3c(cc4c(c3Oc3cc5c(cc3OC)CCN(C)[C@@H]5C2)OCO4)CCN1C [CEPHARANTHIN]
